This note sets out measurements from patent US20200054057A1, “USE OF ACETYLENIC FATTY ACID COMPOUNDS AS KOKUMI FLAVOR” (Takasago International Corporation, priority 2017, published 2020).

Each structure is given as a SMILES string. Entries after “also recorded” stand apart in the source; their conditions may differ.

Test [1] deals with trained sensory panel. Nature of the test: Intrinsic taste recognition thresholds, three-alternative forced choice tests in 1% ethanol. The class given is in vivo, human. To be noted: in 1% ethanol/water; for Intrinsic taste threshold: three-alternative forced choice; for Intrinsic taste quality: taste recognized at threshold. The method, then: Seventeen trained assessors (ten women and seven men, ages 23-30) were recruited from the Chair of Food Chemistry and Molecular Sensory Science (TUM). The sensory sessions were performed at 22° C. in air-conditioned sensory booths. To prevent cross-modal interactions with odorants, the panelists used nose-clips. Furthermore the light in the sensory booths was adjusted to yellow in order to eliminate optical differences between the samples. The human recognition thresholds for the intrinsic taste of the purified compounds were determined by means of three-alternative forced choice tests in 1% ethanol. Serial 1:2 dilutions of the sample were presented in order of increasing concentrations to the panelists using the sip-and-spit-method. The geometric mean of the last and the next-to-last concentrations were calculated and taken as the individual recognition threshold. The threshold values evaluated in two different sessions were averaged.

Test [2] concerns trained sensory panel. Nature of the test: Taste recognition thresholds for kokumi/mouthfulness enhancement, duo-trio tests in chanterelle flavor recombinant. The test is classed as in vivo, human. To be noted: for Kokumi threshold: in recombinant chanterelle flavor, pH 5.8, duo-trio test; for Kokumi effect (in words): vis-à-vis recombinant chanterelle flavor. The method, then: An artificial chanterelle flavor recombinant was used as a reference flavor for determining the flavor-enhancing effect of the compounds to be tested. The pH value was adjusted to 5.8 with trace amounts of formic acid: Seventeen trained assessors (ten women and seven men, ages 23-30) were recruited from the Chair of Food Chemistry and Molecular Sensory Science (TUM). The sensory sessions were performed at 22° C. in air-conditioned sensory booths. To prevent cross-modal interactions with odorants, the panelists used nose-clips. Furthermore the light in the sensory booths was adjusted to yellow in order to eliminate optical differences between the samples. The taste threshold concentrations of the purified compounds were determined in the above-described chanterelle flavor recombinant using duo-trio-tests. The pH value of the individual samples and blanks was adjusted to 5.8 by adding trace amounts of formic acid. The samples were presented in serial 1:2 dilutions in order of increasing concentrations to the trained panel and the panelists were asked to mark the sample differing from the recombinant which was used as constant reference (one sample was identical to the reference, one sample was different). The threshold value of the sensory panel was approximated by averaging the threshold values of the individual panelists in two independent sessions.

In the case of `O=C(O)CCCCCCC/C=C\CC#CC(O)/C=C/C(O)CO` (stereo not drawn) [Compound 1, (9Z,15E)-14,17,18-trihydroxy-9,15-octadecadien-12-ynoic acid], the Intrinsic taste threshold in the test on trained sensory panel [1] was over 1000 µmol/L. The Kokumi threshold with trained sensory panel [2] was found to be 59 µmol/L.
For `O=C(O)CCCCCCC/C=C\C=C/CC(O)CCC(O)CO` (stereo not drawn) [Compound 2, (9Z,11Z)-14,17,18-trihydroxy-9,11-octadecadienoic acid], in the test with trained sensory panel [1], the Intrinsic taste quality entry is “[bitter]” and the Intrinsic taste threshold is 331 µmol/L. Moreover, the “Kokumi effect (in words)” value with trained sensory panel [2] is reported as “did not exhibit a kokumi effect; also recorded: do not exhibit a kokumi flavor”.
As to `O=C(O)CCCCCCC/C=C\C=C/CC(O)CCCCO` (stereo not drawn) [Compound 3, (9Z,11Z)-14,18-dihydroxyoctadeca-9,11-dienoic acid], in the test with trained sensory panel [1], the Intrinsic taste quality result is “[bitter]” and the Intrinsic taste threshold stood at 281 µmol/L. Besides, the “Kokumi effect (in words)” value in the test on trained sensory panel [2] is “did not exhibit a kokumi effect; also recorded: do not exhibit a kokumi flavor”.
For `CCC/C=C\C#C/C=C/C(O)CCCCCCCC(=O)O` (stereo not drawn) [Compound 4, (10E,14Z)-9-hydroxy-10,14-octadecadien-12-ynoic acid], in the test with trained sensory panel [1], the Intrinsic taste quality result is “[astringent]” and the Intrinsic taste threshold stood at 320 µmol/L. Further, the Kokumi threshold in the test with trained sensory panel [2] was found to be 69 µmol/L.
For `CC/C=C/C(=O)C#CC/C=C\CCCCCCCC(=O)O` [Compound 5, (9Z,15E)-14-oxo-9,15-octadecadien-12-ynoic acid] the same measures were “[pungent]”, 228 µmol/L and 19 µmol/L.
In the same order, the values of `CCC/C=C\C#C/C=C/C(=O)CCCCCCCC(=O)O` [Compound 6, (10E,14Z)-9-oxo-10,14-octadecadien-12-ynoic acid] are “[astringent]”, 639 µmol/L and 79 µmol/L.
Take `CCC/C=C\CC(O)/C=C/CCCCCCCCC(=O)O` (stereo not drawn) [Compound 8, (10E,14Z)-12-hydroxy-10,14-octadecadienoic acid]: in the test with trained sensory panel [1], the Intrinsic taste quality entry is “[bitter]” and the Intrinsic taste threshold is 297 µmol/L. Besides, in the test on trained sensory panel [2], the “Kokumi effect (in words)” value is reported as “did not exhibit a kokumi effect; also recorded: do not exhibit a kokumi flavor”.
For the compound `CC/C=C/C(=O)C#CC/C=C\CCCCCCCC(=O)OC` [Compound 9, (9Z,15E)-14-oxo-9,15-octadecadien-12-ynoic acid methyl ester], the Kokumi threshold in the test on trained sensory panel [2] is 59 µmol/L.
As for `CCC/C=C\C#C/C=C/C(CCCCCCCC(=O)O)OO` (stereo not drawn) [Compound 10, (10E,14Z)-9-hydroperoxy-10,14-octadecadien-12-ynoic acid], in the test with trained sensory panel [1], the Intrinsic taste quality entry is “[bitter]” and the Intrinsic taste threshold came out at 536 µmol/L. Further, in the test with trained sensory panel [2], the Kokumi threshold was 38 µmol/L.
Turning to `CCC/C=C\C#CC/C=C\CCCCCCCC(=O)O` [Compound 11, 14,15-dehydrocrepenynic acid], in the test with trained sensory panel [1], the Intrinsic taste quality result was “[bitter]” and the Intrinsic taste threshold was 531 µmol/L. The Kokumi threshold with trained sensory panel [2] was found to be 105 µmol/L.
In the case of `CCC/C=C\C#CC/C=C\CCCCCCCC(=O)OC` [Compound 12, 14,15-dehydrocrepenynic acid methyl ester], in the test on trained sensory panel [1], the Intrinsic taste quality entry is “[astringent]” and the Intrinsic taste threshold stood at 648 µmol/L. For the same compound, the Kokumi threshold in the test on trained sensory panel [2] came out at 32 µmol/L.
For `CCC/C=C\C#CC/C=C\CCCCCCCC(=O)OCC` [Compound 13, 14,15-dehydrocrepenynic acid ethyl ester] the same measures were “[astringent]”, 512 µmol/L and 59 µmol/L.
For `CCCCCC/C=C/C#CCCCCCCCC(=O)O` [ximenynic acid, 11E-octadecen-9-ynoic acid, reference compound] the same measures were “[bitter]”, 482 µmol/L and 84 µmol/L.
